The source of these data is US5801178A, “Aniline derivative having polyunsaturated fatty acid residue and use thereof” (Nippon Shoji Kaish Ltd., priority 1995, dated 1998).

Data set [1] concerns ACAT derived from rat liver. Nature of the data set: Inhibitory activity against ACAT derived from rat liver microsome. It counts as biochemical. To be noted: pH 7.4, 37° C., 30 minutes. Here is the method:
Inhibitory activity against ACAT derived from rat liver microsome
(§1) Using, as an enzyme source, the microsomal fractions prepared from rat liver in the manner described below under Preparation of Microsome, the inhibitory activity against ACAT in the microsome fractions was determined as in the following. The compound of the present invention was dissolved in dimethyl sulfoxide and used as a sample solution. [1-^14 C] […] Ethanol (1 ml) was added to stop the reaction, and n-hexane (4.5 ml) was added. The reaction mixture was centrifuged at 2,000 rpm for 2 minutes and the upper n-hexane layer was separated and recovered, whereby cholesterol oleate (reaction product) was extracted. n-Hexane was evaporated with a nitrogen gas and the residue was re-dissolved dissolved in n-hexane (50 μl), which was used as a sample for thin-layer chromatography. […] After developing, the spot of cholesterol oleate was colored with iodine. The spot was cut out and dissolved in a xylene scintillator (Aquasol-2, Daiichi Pure Chemicals Co., Ltd.). The amount of cholesterol oleate was determined using a liquid scintillation counter.
The liver was removed from a fasted rat and thoroughly perfused with 0.25M sucrose solution. The liver was weighed, minced with scissors or razor and placed in a Teflon homogenizer. The liver was homogenized with 9 volumes [9 ml per g (wet weight) of liver] of 0.25M sucrose solution or 50 mM Tris-HCl buffer (pH 7.5) containing 0.25M sucrose and 5 mM MgCl2. The homogenate was centrifuged at 8,000-10,000 g for 10-15 minutes. The obtained supernatant was centrifuged at 105,000 g for 60-90 minutes. The sediment obtained from this centrifugation was suspended in 150 mM potassium phosphate buffer (pH 7.4) to give a microsomal fraction.
(Liver microsomes are a subcellular fraction often used to study metabolism.)

Data set [2] addresses T1, ACAT derived from human macrophage (Homo sapiens, UniProt P35610).
T1 construct: Using, as an enzyme source, microsomal fractions prepared in the manner described below under Preparation of Microsome from U937 cells; endogenous in cells; host or cells: U937 cells differentiated with TPA, microsomal fraction
T1 sequence (P35610 1-550): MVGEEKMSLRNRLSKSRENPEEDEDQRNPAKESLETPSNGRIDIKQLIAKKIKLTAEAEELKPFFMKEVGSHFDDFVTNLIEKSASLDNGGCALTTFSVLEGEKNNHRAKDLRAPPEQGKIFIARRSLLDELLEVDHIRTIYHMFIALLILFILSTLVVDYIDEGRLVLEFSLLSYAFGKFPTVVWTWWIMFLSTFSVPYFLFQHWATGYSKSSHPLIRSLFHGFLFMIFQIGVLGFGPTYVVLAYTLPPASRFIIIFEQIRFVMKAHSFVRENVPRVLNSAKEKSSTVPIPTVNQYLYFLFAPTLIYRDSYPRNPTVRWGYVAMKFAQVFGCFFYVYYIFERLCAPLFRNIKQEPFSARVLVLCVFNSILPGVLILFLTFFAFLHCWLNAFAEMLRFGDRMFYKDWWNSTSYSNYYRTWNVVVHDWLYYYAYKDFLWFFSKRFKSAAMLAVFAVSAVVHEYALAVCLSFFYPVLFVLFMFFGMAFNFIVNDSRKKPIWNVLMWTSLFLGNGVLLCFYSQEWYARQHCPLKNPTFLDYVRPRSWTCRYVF
Nature of the data set: Inhibitory activity against ACAT derived from human macrophage (microsomes of TPA-differentiated U937 cells). It counts as biochemical. The following applies: for Selectivity: Table 1, rat liver ACAT IC50 / human macrophage ACAT IC50; for IC50: human macrophage (U937/TPA) microsome, pH 7.4, 37° C., 30 minutes; for selectivity (times greater, human macrophage ACAT vs rat liver ACAT): linoleoylamide derivatives. Here is the method: Inhibitory activity against ACAT derived from human macrophage
as §1, with “source,” for “source, the”, “prepared” for “prepared from rat liver”, “Microsome from U937 cells [human monocyte-derived cells known to differentiate into macrophages by the addition of TPA (12-O-tetradecanoylphorbol 13-acetate)] differentiated with TPA,” for “Microsome,”, “re-dissolved” for “re-dissolved dissolved”, “with” for “using”
The cells thus scraped and the culture solution were centrifuged at 3,000 rpm for 5 minutes, and the cell fractions obtained as precipitate were once freezed at -70° C. and preserved. The cells preserved at -70° C. were thawed and homogenized at 4° C. in a Teflon homogenizer. The homogenate was centrifuged at 12,000 g for 15 minutes. The precipitate fractions containing nuclea and mitochondria were removed and the obtained supernatant was further centrifuged at 100,000 g for 60 minutes. The supernatant was discarded, and the obtained precipitate fractions were suspended in 150 mM potassium phosphate buffer (pH 7.4) and used as a microsomal fraction.

The nature of data set [3]: Reduction of cholesterol in blood of cholesterol-loaded rats. It counts as in vivo, Male slc:SD (SPF) rats. To be noted: serum total cholesterol; 90 mg/kg/day orally, five days; average of 8 rats; control taken as 100%. The source says:
Reduction of cholesterol in blood of rats
Male slc:SD (SPF) rats (4 weeks of age weighing 70-90 g, Japan SLC Inc.) were randomly divided into 8 per group and bred for 3 days on a normal diet (solid diet for test animals, MF, manufactured by Oriental Yeast CO., LTD.). Then, the aforementioned diet supplemented with 5% cholesterol, 10% olive oil and 0.5% cholic acid was freely fed for 10 days. During the last five days, the test compound (Compounds 3-6, 8, 11 and 12) suspended in 0.5% aqueous methylcellulose solution was forcibly administered orally once a day in a dose of 10 ml/kg which contains 90 mg/kg/day of the test compound (total dose of the test compound being 450 mg/kg). The rats were fasted for 16 hours after the final administration and etherized. The blood was taken from the abdominal aorta, and serum was separated by centrifugation to determine the total cholesterol content in the serum. The control group was administered with 0.5% aqueous methylcellulose solution instead of the test compound suspended in 0.5% aqueous methylcellulose solution.
* is an average of 8 rats per group based on the cholesterol content in
blood of control which was taken as 100%.

Data set [4] can be described thus: Acute toxicity, oral, mice. The format is in vivo, Male slc:ICR mice. On the procedure: Male slc:ICR mice (4 weeks of age, Japan SLC Inc.) were bred for 7 days on a normal diet (solid diet for test animals, Labo MR stock-SLC, manufactured by Japan SLC Inc.). Then, the mice were fasted for 16 hours and divided into 5 per group. The mice were forcibly administered orally with the test compound (Compounds 4, 5 and 9-12) dissolved in corn oil. The mice were further bred on a normal diet for 14 days to observe acute toxicity.

In general, IC50 refers to the midpoint of a concentration-inhibition curve. As for `CCC=CCC=CCC=CCC=CCC=CCCCC(=O)Nc1c(F)cc(F)cc1F` [Compound 3, N-(2,4,6-trifluorophenyl)-5,8,11,14,17-eicosapentaenamide], in data set [1], the IC50 was more than 500 µM. In addition, in data set [2], the Selectivity is on record as more than 1852 and the IC50 came to 0.27 µM. Besides, in data set [3], the “Reduction of cholesterol in cholesterol-loaded rats, %*” value (from here on “Reduction of cholesterol … %*”) was found to be 71%.

Consider `CCC=CCC=CCC=CCC=CCC=CCC=CCCC(=O)Nc1c(F)cc(F)cc1F` [Compound 4, N-(2,4,6-trifluorophenyl)-4,7,10,13,16,19-docosahexaenamide], for which the IC50 is more than 500 µM in data set [1] and 0.62 µM in data set [2]. The minimum lethal dose in data set [4] (mouse, in vivo, po, 20160 min) was ≥ 2,000 mg/kg. This compound also yielded a Selectivity in data set [2] of more than 806. Besides, the “Reduction of cholesterol … %*” value in data set [3] was 59%.

The compound `CCC=CCC=CCC=CCC=CCC=CCCCC(=O)Nc1c(C)cc(C)cc1C` [Compound 5, N-(2,4,6-trimethylphenyl)-5,8,11,14,17-eicosapentaenamide] yielded an IC50 in data set [1] of 43.1 µM. The minimum lethal dose in data set [4] (single oral administration in corn oil, mice, 14 days observation) is recorded as ≥ 2,000 mg/kg. Further, in data set [2], the Selectivity is on record as 47.9 and the IC50 is 0.9 µM. The “Reduction of cholesterol … %*” value in data set [3] worked out at 57%.

Turning to `CCC=CCC=CCC=CCC=CCC=CCC=CCCC(=O)Nc1c(C)cc(C)cc1C` [Compound 6, N-(2,4,6-trimethylphenyl)-4,7,10,13,16,19-docosahexaenamide], the IC50 in data set [1] is more than 500 µM. For the same compound, in data set [2], the Selectivity is more than 3333 and the midpoint of inhibition, the IC50, lay at 0.15 µM. Further, the “Reduction of cholesterol … %*” value in data set [3] worked out at 68%.

Take `CCC=CCC=CCC=CCC=CCC=CCC=CCCC(=O)Nc1c(C)cccc1C` [Compound 8, N-(2,6-dimethylphenyl)-4,7,10,13,16,19-docosahexaenamide]: the 50% inhibitory concentration (IC50) in data set [1] was 73.9 µM; in data set [2], 0.28 µM. The Selectivity in data set [2] was found to be 264. Moreover, the “Reduction of cholesterol … %*” value in data set [3] is 77%.

`CCC=CCC=CCC=CCC=CCC=CCCCC(=O)Nc1c(C(C)C)cccc1C(C)C` [Compound 11, N-(2,6-diisopropylphenyl)-5,8,11,14,17-eicosapentaenamide] yielded an IC50 in data set [1] of 2.4 µM. For the same compound, in data set [2], the Selectivity is given as 247 and the IC50 came out at 0.0097 µM. Also, the “Reduction of cholesterol … %*” value in data set [3] is on record as 78%.

`CCC=CCC=CCC=CCC=CCC=CCC=CCCC(=O)Nc1c(C(C)C)cccc1C(C)C` [Compound 12, N-(2,6-diisopropylphenyl)-4,7,10,13,16,19-docosahexaenamide] came in with an IC50 in data set [1] of 52.7 µM. Further, in data set [3], the “Reduction of cholesterol … %*” value turned out to be 64%.

Regarding `CCC=CCC=CCC=CCC=CCC=CCC=CCCC(=O)Nc1ccc(CNC(=O)Nc2c(C(C)C)cccc2C(C)C)cc1` [Compound 20, N-{4-(4,7,10,13,16,19-docosahexaenoylamino)phenylmethyl}-N'-(2,6-diisopropylphenyl)urea], the IC50 is 20.2 µM in data set [1] and 1.1 µM in data set [2]. Moreover, the Selectivity in data set [2] was 18.4.

As for `CCC=CCC=CCC=CCC=CCC=CCCCC(=O)NCc1ccc(NC(=O)Nc2c(C(C)C)cccc2C(C)C)cc1` [Compound 21, N-{4-(5,8,11,14,17-eicosapentaenoylaminomethyl)phenyl}-N'-(2,6-diisopropylphenyl)urea], the IC50 in data set [1] is more than 500 µM; in data set [2], 6.64 µM. In data set [2], the Selectivity is more than 75.3.

`CCC=CCC=CCC=CCC=CCC=CCC=CCCC(=O)NCc1ccc(NC(=O)Nc2c(C(C)C)cccc2C(C)C)cc1` [Compound 22, N-{4-(4,7,10,13,16,19-docosahexaenoylaminomethyl)phenyl}-N'-(2,6-diisopropylphenyl)urea] came in with a half-inhibitory concentration (IC50) in data set [1] of more than 500 µM. Also, in data set [2], the Selectivity is more than 27.9 and the IC50 stood at 17.9 µM.

Turning to `CCCCC/C=C\C/C=C\CCCCCCCC(=O)Nc1c(C(C)C)cccc1C(C)C` [reference compound], the IC50 was found to be 0.09 µM in data set [1] and 0.006 µM in data set [2]. Besides, the “selectivity (times greater, human macrophage ACAT vs rat liver ACAT)” value in data set [2] is listed as “about fifteen times”.

In the case of `CCCCC/C=C\C/C=C\CCCCCCCC(=O)N1CCN(C(=O)Nc2c(C(C)C)cccc2C(C)C)CC1` [reference compound], the concentration for half-maximal inhibition (IC50) in data set [1] was not below 500 µM; in data set [2] it was 4.61 µM. Further, the “ACAT inhibitory activity (in words)” value in data set [2] (human macrophage ACAT) was “low activity”.

For the compound `CCCCC/C=C\C/C=C\CCCCCCCC(=O)Nc1c(OC)cc(OC)cc1OC` [reference compound], the IC50 in data set [1] was 0.87 µM. In data set [2], the IC50 is 0.67 µM and the “selectivity (times greater, human macrophage ACAT vs rat liver ACAT)” value was “scarce selectivity”.

For the compound `CCCCCC=CCC=CCCCCCCCC(=O)Nc1c(C)cccc1C` [reference compound], the IC50 in data set [1] was found to be 0.14 µM; in data set [2], 0.07 µM. The “selectivity (times greater, human macrophage ACAT vs rat liver ACAT)” value in data set [2] is “about twice”.

Consider `CCCCC/C=C\C/C=C\CCCCCCCC(=O)Nc1c(CC)cccc1CC` [reference compound], for which inhibition in data set [1] was half-maximal at 0.1 µM (IC50). Moreover, in data set [2], the midpoint of inhibition, the IC50, lay at 0.02 µM and the “selectivity (times greater, human macrophage ACAT vs rat liver ACAT)” value is reported as “about five times”.
